Article PMC10244169, “Psychedelics promote plasticity by directly binding to BDNF receptor TrkB” (Nature Neuroscience, 2023)

Columns and labels:
TrkB (WT) dimerization = target: T1, TrkB (WT) dimerization (Rattus norvegicus, UniProt Q63604); assay: Split-luciferase PCA of TrkB dimerization in N2a cells; type: cell-based
T1 construct: expressed in transfected cells; host or cells: N2a
Method: Ketanserin, M100907 and TRKB.FC were added to the media 10 min before treatment. The PCA method was performed as previously described[11],[75],[76]. Split humanized Gaussia princeps luciferase (hGLuc) was cloned on the C-terminus of the reporter proteins TrkB (WT and Y433F) and lipid raft Fyn. If the reporter proteins that carry complementary halves of the luciferase interact, the enzyme can refold in its functional conformation and, upon addition of its substrate, produce luminescence proportionally to the amount of reporter proteins interacting at a given time. N2a cells were seeded in 96-well plates with opaque walls and transparent bottom (PerkinElmer, ViewPlate 96). Cells were transfected with Lipofectamine 2000 according to the manufacturer’s instructions 24 h post-plating with the PCA pair plasmids: phGLuc(1C)-TrkB(WT) or the mutant phGLuc(1C)-TrkB(Y433F) and phGLuc(2 C)-TrkB(WT) for the dimerization experiments; phGLuc(1C)-lipid raft Fyn and phGLuc(2C)-TrkB(WT) or phGLuc(2C)-TrkB(Y433F) for the lipid raft localization experiments. Forty-eight hours post transfection, cells were treated (40 min, 37 °C) in phenol red-free Dulbecco’s modified Eagle medium without serum. […] The PCA signal was detected with the substrate for the luciferase, native coelenterazine, which was injected into each well directly in the plate reader at a final concentration of […].

[1] = system: dendritic arbor complexity of neuronal cultures; assay: Dendritogenesis (Sholl analysis) in neuronal cultures (WT and Y433F^+/−); type: cell-based, mouse; settings: for Sholl analysis, Mean at distance from soma: fig 6j
Method: In a separate set of experiments to study the effects of extracellular BDNF and 5-HT2A activation, cultures were also pretreated for 10 min with TrkB.FC (200 ng ml^−1) or M100907 (100 nM), respectively. Similar to treatment with the psychedelics, TrkB.FC and M100907 pretreatments were administered in cumulative doses and remained in the medium for the rest of the experiment. At DIV7, neurons were pre-incubated for 1 h with […] MgCl2 to prevent excitotoxicity, then neurons were transfected for the heterologous expression of mCherry. To minimize any possible interference of the transfection protocol upon the drug effect, transfection was done in the morning while treatment with psychedelics was always added in the evening. Twenty-four hours after transfection, neurons were fixed with 4% PFA for 20 min at room temperature, washed in PBS-T, blocked for 30 min with 3% BSA in PBS-T and incubated with chicken anti-MAP2 (Abcam, ab5392; 1:5,000, 1 h, room temperature). Then, coverslips were washed in PBS-T and incubated with Alexa Fluor 647-conjugated antibody goat anti-chicken (Invitrogen, A-21449; 1:1,000, 1 h, room temperature). Next, coverslips were washed in PBS-T and MilliQ water, and mounted in Dako fluorescence mounting medium (Agilent, S302380-2). Ten optical sections with a Z-step of 1.3 μm were acquired using a Zeiss LSM 710 confocal microscope with a LCI Plan/Neofluar 25×/0.8 lmm Korr DIC M27 objective. In the mCherry channel, the center of the soma was manually assigned and the number of dendritic intersections at fixed distances (every 5 μm) from the soma was automatically counted using the Sholl analysis plugin of ImageJ.

T1 sequence (Q63604 32-821): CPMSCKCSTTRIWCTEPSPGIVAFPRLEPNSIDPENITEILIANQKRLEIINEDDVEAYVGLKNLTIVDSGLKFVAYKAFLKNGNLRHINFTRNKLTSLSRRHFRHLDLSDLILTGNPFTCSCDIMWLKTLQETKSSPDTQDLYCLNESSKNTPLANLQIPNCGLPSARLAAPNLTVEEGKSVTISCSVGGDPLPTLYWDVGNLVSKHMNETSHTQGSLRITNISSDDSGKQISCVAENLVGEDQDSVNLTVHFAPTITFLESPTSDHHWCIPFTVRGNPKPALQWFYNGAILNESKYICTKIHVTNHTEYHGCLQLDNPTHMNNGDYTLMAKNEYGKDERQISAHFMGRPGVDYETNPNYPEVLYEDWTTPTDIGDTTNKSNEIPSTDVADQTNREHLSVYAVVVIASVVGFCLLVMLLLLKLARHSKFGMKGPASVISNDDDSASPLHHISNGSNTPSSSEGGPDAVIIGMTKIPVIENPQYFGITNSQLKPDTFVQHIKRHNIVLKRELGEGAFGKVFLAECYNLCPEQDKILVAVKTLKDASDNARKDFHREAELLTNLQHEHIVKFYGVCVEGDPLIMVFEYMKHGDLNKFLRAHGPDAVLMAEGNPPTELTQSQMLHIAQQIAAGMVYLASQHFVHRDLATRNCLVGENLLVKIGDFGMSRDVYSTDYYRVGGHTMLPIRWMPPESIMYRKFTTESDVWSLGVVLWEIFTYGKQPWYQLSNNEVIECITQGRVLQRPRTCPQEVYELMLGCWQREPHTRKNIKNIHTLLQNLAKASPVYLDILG
T1 sequence (Q63604 32-821): as above

SMILES: COc1cccc([C@H](O)C2CCN(CCc3ccc(F)cc3)CC2)c1OC [M100907]
- Group mean (Mean 2; Vehicle:vehicle = 100), fig 4d (TrkB (WT) dimerization; M100907 alone (M100907:vehicle), n=20): 100
- effect of pretreatment on LSD- and BDNF-induced TrkB dimerization (TrkB (WT) dimerization; ketanserin 100 nM, M100907 100 nM or TrkB.FC 200 ng ml^−1, 10 min before): fails to prevent the effects of LSD and BDNF on TrkB dimerization
- effect of pretreatment on LSD effects on dendritogenesis ([1]; TrkB.FC 200 ng ml^−1 or M100907 100 nM): not M100907 prevented LSD effects on dendritogenesis
- dendritic arbor complexity, Mean Diff. (Vehicle:vehicle vs. group) ([1]; fig 6i, Bonferroni's multiple comparisons test): -9.087
- dendritic arbor complexity, group mean (Mean 2) ([1]; fig 6i, treatment:pretreatment groups, Vehicle:vehicle mean 69.72): 78.81
- Sholl analysis, Mean at distance from soma ([1]; distance from soma 10 µm): 6.619
- Sholl analysis, Mean at distance from soma ([1]; distance from soma 15 µm): 6.476
- Sholl analysis, Mean at distance from soma ([1]; distance from soma 20 µm): 6.048
- Sholl analysis, Mean at distance from soma ([1]; distance from soma 25 µm): 6.333
- Sholl analysis, Mean at distance from soma ([1]; distance from soma 30 µm): 5.286
- Sholl analysis, Mean at distance from soma ([1]; distance from soma 35 µm): 4.524
- Sholl analysis, Mean at distance from soma ([1]; distance from soma 40 µm): 4.619
- Sholl analysis, Mean at distance from soma ([1]; distance from soma 45 µm): 3.714
- Sholl analysis, Mean at distance from soma ([1]; distance from soma 50 µm): 3.667
- Sholl analysis, Mean at distance from soma ([1]; distance from soma 55 µm): 3.571
- Sholl analysis, Mean at distance from soma ([1]; distance from soma 60 µm): 3.381
- Sholl analysis, Mean at distance from soma ([1]; distance from soma 65 µm): 3.238
- Sholl analysis, Mean at distance from soma ([1]; distance from soma 70 µm): 2.905
- Sholl analysis, Mean at distance from soma ([1]; distance from soma 75 µm): 2.857
- Sholl analysis, Mean at distance from soma ([1]; distance from soma 80 µm): 3.429
- Sholl analysis, Mean at distance from soma ([1]; distance from soma 85 µm): 3.429
- Sholl analysis, Mean at distance from soma ([1]; distance from soma 90 µm): 3.381
- Sholl analysis, Mean at distance from soma ([1]; distance from soma 95 µm): 2.619
- Sholl analysis, Mean at distance from soma ([1]; distance from soma 100 µm): 2.714
